Results from US20180084782A1, “METHOD OF CONTROL OF STINKBUGS” (Syngenta Participations AG, priority 2015, published 2018).
Read-outs that look alike come from different tables or passages of the source.

System: Euschistus heros (neotropical brown stink bug)
Test: Insecticidal activity against Euschistus heros: contact/feeding activity on sprayed soybean plants
Assay type: in vivo
Conditions: 120 h
Method: Insecticidal activity against Euschistus heros (neotropical brown stink bug): contact/feeding activity of compounds 1 and 3 according to the invention and 2 and 4 as comparison:
Two week old soybean plants were sprayed in a turn table spray chamber with the diluted spray solutions. After drying, two soybean seeds were added and plants were infested with ten N-2 nymphs of the neotropical brown stink bug Euschistus heros in plastic test boxes. Boxes were incubated in a climate chamber at 25° C. and 60% relative humidity. Evaluation is done 5 days after infestation on mortality and growth effect.

[1] = 0.2 ppm spray, N-2 nymphs on soybean plants, evaluation 5 days after infestation, read-out: Mortality (%)
[2] = 0.8 ppm spray, N-2 nymphs on soybean plants, evaluation 5 days after infestation, read-out: Mortality (%)
[3] = 3 ppm spray, N-2 nymphs on soybean plants, evaluation 5 days after infestation, read-out: Mortality (%)

Cn1nc(C(F)(F)C(F)(F)F)c(C(F)(F)F)c1-n1cc(-c2ccc(Cl)c(C(=O)NC3CC3)c2)cn1 [Compound 1] was tested, and the mortality at 0.0125 ppm was 35%, the mortality at 0.05 ppm was 50% and the mortality at 0.2 ppm was 95%. The mortality at 0.8 ppm was 100% and the mortality at 3 ppm was 100%.
Compound Cn1nc(C(F)(F)C(F)(F)F)c(C(F)(F)F)c1-n1cc(-c2ccc(Cl)c(C(=O)NC3CC3)c2)nn1 [Compound 2, reference compound] has a mortality at 0.0125 ppm (0.0125 ppm spray, N-2 nymphs on soybean plants, evaluation 5 days after infestation, read-out: Mortality (%)) of 0%, a mortality at 0.05 ppm (0.05 ppm spray, N-2 nymphs on soybean plants, evaluation 5 days after infestation, read-out: Mortality (%)) of 10% and a mortality at 0.2 ppm [1] of 20%. It also gave a mortality at 0.8 ppm [2] of 35% and a mortality at 3 ppm [3] of 100%.
Compound Cn1nc(C(F)(F)C(F)(F)F)c(C(F)(F)F)c1-n1cc(-c2ccc(Cl)c(C(=O)NC3(C#N)CC3)c2)cn1 [Compound 3] has a mortality at 0.0125 ppm of 15%, a mortality at 0.05 ppm of 35% and a mortality at 0.2 ppm of 95%. For the same compound, the mortality at 0.8 ppm was 95% and the mortality at 3 ppm was 100%.
Cn1nc(C(F)(F)C(F)(F)F)c(C(F)(F)F)c1-n1cc(-c2ccc(Cl)c(C(=O)NC3(C#N)CC3)c2)nn1 [Compound 4, reference compound] showed a mortality at 0.2 ppm [1] of 0%, a mortality at 0.8 ppm [2] of 20% and a mortality at 3 ppm [3] of 95%.
